Laboratory results reported in PubChem BioAssay (NCI).
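In this assay, cells in 96-well plates receive the compound at five concentrations for 48 hours. Endpoints are linearly interpolated between the surrounding concentrations. Here, GI50 denotes the concentration required for 50% inhibition of growth. The concentration for full growth arrest is given as TGI.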

Columns and labels:
Experiment in all cases: NCI anticancer screen, dose series, 48 h
[1] = system: UO-31 renal
[2] = system: RPMI-8226 leukemia
[3] = system: SF-268 CNS
[4] = system: IGROV1 ovarian
[5] = system: MOLT-4 leukemia
[6] = system: LOX IMVI melanoma
[7] = system: UACC-257 melanoma
[8] = system: HL-60(TB) leukemia
[9] = system: UACC-62 melanoma
[10] = system: CAKI-1 renal
[11] = system: MCF7 breast
[12] = system: OVCAR-5 ovarian
[13] = system: HCC-2998 colon
[14] = system: A549 NSCLC
[15] = system: A498 renal
[16] = system: MALME-3M melanoma
[17] = system: OVCAR-3 ovarian
[18] = system: SK-OV-3 ovarian
[19] = system: HCT-116 colon
[20] = system: 786-0 renal
[21] = system: NCI-H460 lung
[22] = system: SK-MEL-5 melanoma
[23] = system: OVCAR-8 ovarian
[24] = system: PC-3 prostate
[25] = system: SW-620 colon
[26] = system: ACHN renal
[27] = system: SR leukemia
[28] = system: HCT-15 colon
[29] = system: T-47D breast
[30] = system: SK-MEL-28 melanoma
[31] = system: SNB-19 CNS
[32] = system: SF-295 CNS
[33] = system: M14 melanoma
[34] = system: K-562 leukemia
[35] = system: NCI/ADR-RES ovarian
[36] = system: BT-549 breast
[37] = system: MDA-MB-231 breast
[38] = system: SNB-75 CNS
[39] = system: HOP-92 NSCLC
[40] = system: EKVX NSCLC
[41] = system: KM12 colon
[42] = system: RXF 393 renal
[43] = system: OVCAR-4 ovarian
[44] = system: TK-10 renal
[45] = system: NCI-H226 lung
[46] = system: MDA-MB-435
[47] = system: DU-145 prostate
[48] = system: SN12C renal
[49] = system: SK-MEL-2 melanoma
[50] = system: U251 CNS
[51] = system: CCRF-CEM leukemia
[52] = system: SF-539 CNS
[53] = system: NCI-H522 lung
[54] = system: HOP-62 NSCLC
[55] = system: COLO 205 colon
[56] = system: HS 578T breast
[57] = system: NCI-H23 lung
[58] = system: HT29 colon

## OCCn1cc(-c2cnc3nnn(Cc4ccc5ncccc5c4)c3n2)cn1
[1]
  GI50: > 100 µM
  TGI: > 100 µM
[2]
  GI50: > 100 µM
  TGI: > 100 µM
[3]
  GI50: > 100 µM
  TGI: > 100 µM
[4]
  GI50: > 100 µM
  TGI: > 100 µM
[5]
  GI50: > 100 µM
  TGI: > 100 µM
[6]
  GI50: > 100 µM
  TGI: > 100 µM
[7]
  GI50: > 100 µM
  TGI: > 100 µM
[8]
  GI50: > 100 µM
  TGI: > 100 µM
[9]
  GI50: > 100 µM
  TGI: > 100 µM
[10]
  GI50: > 100 µM
  TGI: > 100 µM
[11]
  GI50: > 100 µM
  TGI: > 100 µM
[12]
  GI50: > 100 µM
  TGI: > 100 µM
[13]
  GI50: > 100 µM
  TGI: > 100 µM
[14]
  GI50: > 100 µM
  TGI: > 100 µM
[15]
  GI50: 34.3 µM
  TGI: > 100 µM
[16]
  GI50: > 100 µM
  TGI: > 100 µM
[17]
  GI50: > 100 µM
  TGI: > 100 µM
[18]
  GI50: > 100 µM
  TGI: > 100 µM
[19]
  GI50: > 100 µM
  TGI: > 100 µM
[20]
  GI50: > 100 µM
  TGI: > 100 µM
[21]
  GI50: > 100 µM
  TGI: > 100 µM
[22]
  GI50: > 100 µM
  TGI: > 100 µM
[23]
  GI50: > 100 µM
  TGI: > 100 µM
[24]
  GI50: > 100 µM
  TGI: > 100 µM
[25]
  GI50: > 100 µM
  TGI: > 100 µM
[26]
  GI50: > 100 µM
  TGI: > 100 µM
[27]
  GI50: > 100 µM
  TGI: > 100 µM
[28]
  GI50: > 100 µM
  TGI: > 100 µM
[29]
  GI50: > 100 µM
  TGI: > 100 µM
[30]
  GI50: > 100 µM
  TGI: > 100 µM
[31]
  GI50: > 100 µM
  TGI: > 100 µM
[32]
  TGI: > 100 µM
[33]
  GI50: > 100 µM
  TGI: > 100 µM
[34]
  GI50: > 100 µM
  TGI: > 100 µM
[35]
  GI50: > 100 µM
  TGI: > 100 µM
[36]
  GI50: > 100 µM
  TGI: > 100 µM
[37]
  GI50: > 100 µM
  TGI: > 100 µM
[38]
  GI50: > 100 µM
  TGI: > 100 µM
[39]
  GI50: 13 µM
  TGI: > 100 µM
[40]
  GI50: > 100 µM
  TGI: > 100 µM
[41]
  GI50: > 100 µM
  TGI: > 100 µM
[42]
  GI50: > 100 µM
  TGI: > 100 µM
[43]
  GI50: > 100 µM
  TGI: > 100 µM
[44]
  GI50: > 100 µM
  TGI: > 100 µM
[45]
  GI50: > 100 µM
  TGI: > 100 µM
[46]
  GI50: > 100 µM
  TGI: > 100 µM
[47]
  GI50: > 100 µM
  TGI: > 100 µM
[48]
  GI50: > 100 µM
  TGI: > 100 µM
[49]
  GI50: > 76.2 µM
  TGI: > 100 µM
[50]
  GI50: > 100 µM
  TGI: > 100 µM
[51]
  GI50: > 100 µM
  TGI: > 100 µM
[52]
  GI50: > 100 µM
  TGI: > 100 µM
[53]
  GI50: > 100 µM
  TGI: > 100 µM
[54]
  GI50: > 100 µM
  TGI: > 100 µM
[55]
  GI50: > 100 µM
  TGI: > 100 µM
[56]
  GI50: > 100 µM
  TGI: > 100 µM
[57]
  GI50: > 100 µM
  TGI: > 100 µM
[58]
  GI50: > 100 µM
  TGI: > 100 µM
